# Reference: patent US6538037B2, “Methods for preparation and use of 1α,24(S)-dihydroxyvitamin D2” (Bone Care International, Inc., priority 1991, dated 2003)
# “Also recorded” adds a separate entry of the source.
# What was measured:
# Human keratinocytes = experiment: Epidermal cell differentiation and proliferation testing; type: cell-based; settings: 0.05 to 5 μg/ml, versus control cultures
# Description: Human keratinocytes are cultured according to known modifications of the system originally described by Rheinwald and Green (Cell, vol.6, p.331 (1975)). The 1α,24(S)-dihydroxyvitamin D2, dissolved in ethanol, is added to cells to yield a variety of concentrations between 0.05 and 5 μg/ml with the ethanol concentration not to exceed 0.5% v/v. Control cultures are supplemented with ethanol at a final concentration of 0.5% v/v. Differentiation and proliferation of epidermal cells in culture is examined by:
# 1. quantitation of cornified envelopes;
# 2. quantitation of cell density of cells attached to disks;
# 3. monitoring transglutaminase activity; or
# 4. monitoring DNA synthesis by incorporation of ^3H-thymidine.
# HL-60 promyelocytes = experiment: HL-60 cell differentiation assay; type: cell-based; settings: dose-response study
# Description: A dose-response study is conducted with 1α,24(S)-(OH)2D2 in the HL-60 cell differentiation assay as described by DeLuca and Ostrom (DeLuca, H. F. and Ostrem, V. K., Prog. Clin. Biol. Res., vol. 259, pp. 41-55 (1988)). In this study, 1α,25-(OH)2D3 is used as a positive control and appropriate solvents are used as negative controls. The following variables are evaluated: nonspecific acid esterase activity, nitroblue tetrazolium (NBT) reduction, and thymidine incorporation.
# [1] = tested on: vitamin D receptor positive tumor; experiment: General treatment of cancers, open-label study; type: in vivo, human; settings: after 18 months
# Text: Patients with a known vitamin D receptor positive tumor (e.g., adenocarcinoma of the prostate, breast, lung, colon or pancreas, or transitional cell carcinoma of the bladder, or melanoma) participate in an open-label study of 1α,24(S)-(OH)2D2. Patients are placed on a reduced calcium diet prior to treatment, to help minimize intestinal absorption and allow ever higher doses of 1α,24(S)-dihydroxyvitamin D2. This reduced calcium diet may be continued for the duration of treatment, and for one week after the last dose of the 1α,24(S)-dihydroxyvitamin D2. The diet ideally restricts daily calcium intake to 400-500 mg. Patients also discontinue use of any vitamin supplements or vitamin D replacement therapies. Each patient is also asked to drink 4-6 cups of fluid more than usual intake to assure adequate oral hydration.
# Each subject is monitored at regular intervals for: (1) hypercalcemia, hyperphosphatemia, hypercalciuria, hyperphosphaturia and other toxicity; (2) evidence of changes in the progression of metastatic disease; and (3) compliance with the prescribed test drug dosage.
# The dosing regimen is typically on a daily dose basis of 10 μg or 20 μg per day to about 100 μg/day for 24 months. Alternatively, a non-daily dosing regimen can be used, e.g., 40 μg given every other day, 100 μg given once a week. […]
# bovine thymus VDR = target: T1, bovine thymus VDR (Bos taurus, UniProt Q28037); experiment: Radioreceptor assay, displacement of 3H-1α,25-(OH)2D3 tracer from bovine thymus VDR; type: binding
# T1 construct: commercially available reagents of bovine thymus VDR; purchased Incstar (Stillwater, Minn.); host or cells: bovine thymus
# T1 sequence (Q28037 1-426): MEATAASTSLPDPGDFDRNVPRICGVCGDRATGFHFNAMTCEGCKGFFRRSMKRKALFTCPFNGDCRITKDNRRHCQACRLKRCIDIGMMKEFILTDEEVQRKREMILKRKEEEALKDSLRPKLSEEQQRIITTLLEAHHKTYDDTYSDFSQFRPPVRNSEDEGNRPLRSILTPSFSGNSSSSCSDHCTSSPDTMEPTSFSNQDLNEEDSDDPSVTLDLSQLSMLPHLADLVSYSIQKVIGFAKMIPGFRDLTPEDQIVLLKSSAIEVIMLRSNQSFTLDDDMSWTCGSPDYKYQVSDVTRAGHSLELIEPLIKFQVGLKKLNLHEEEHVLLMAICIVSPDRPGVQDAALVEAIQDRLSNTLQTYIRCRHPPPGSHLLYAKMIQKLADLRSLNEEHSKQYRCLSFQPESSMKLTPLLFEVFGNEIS
# Description: Purified 1α,24(S)-(OH)2D2 was quantitated by photodiode array spectrophotometry and assayed in the radioreceptor assay.
# The purified 1α,24(R)-(OH)2D2 and 1α,24(S)-(OH)2D2 epimers were quantitated by ultraviolet spectroscopy.
# The binding affinities of the environmentally exposed compounds, crystalline 1α,24-dihydroxyvitamin D2 and powdered 1α,24-dihydroxyvitamin D2, to the vitamin D receptor (VDR) were assessed using methods known in the art, as described, e.g., in Example 6. […] The percent bound versus amount of compound in pg/tube are graphed in FIG. 5.
# [2] = Dermatological testing, topical treatment of dermatitis; type: in vivo, human; settings: ointment 10 μg per gram, twice daily
# Description: Compositions containing 1α,24(S)-dihydroxyvitamin D2 are evaluated for therapeutic efficacy of the composition in the topical treatment of dermatitis (contact and ectopic). The composition evaluated is an ointment containing 10 μg of 1α,24-dihydroxyvitamin D2 per gram of ointment in a petrolatum-almond oil base. […] The patients are treated in an out-patient clinic. They are instructed to use the preparation two times a day.
# The ointment is as far as possible applied to a single lesion, or to an area of the disease. The ointment and its container are weighed before the treatment starts and returned with any unused contents for reweighing at the end of the treatment.
# The area of the lesion treated is estimated and recorded, and the lesion is photographed as required, together with suitable “control” lesions. The latter are preferably lesions of similar size and stage of development, either in the vicinity of the treated lesion or symmetrically contralateral. Relevant details of the photographic procedure are recorded so as to be reproduced when the lesions are next photographed (distance, aperture, angle, background, etc.). The ointment is applied twice daily and preferably left uncovered. The “control” lesions are left untreated, but if this is not possible, the treatment used on them is noted. […]
compound,measurement,setting,value
"C=C1/C(=C\C=C2/CCC[C@]3(C)[C@@H]([C@H](C)/C=C/[C@@](C)(O)C(C)C)CC[C@@H]23)C[C@@H](O)C[C@@H]1O [1α,24(S)-(OH)2D2, 1α,24(S)-dihydroxyvitamin D2]",DNA synthesis by incorporation of 3H-thymidine,Human keratinocytes,lower DNA synthesis
same,cell density of cells attached to disks,Human keratinocytes,fewer attached cells
same,cornified envelopes,Human keratinocytes,more cornified envelopes
same,transglutaminase activity,Human keratinocytes,higher transglutaminase activity
same,differentiation of HL-60 promyelocytes to monocytes,HL-60 promyelocytes,potent activity in promoting differentiation
same,"progress of metastatic disease (CAT scans, X-rays, bone scans)",[1]; higher dosage,stable disease and partial or complete remission in many patients
same,"progress of metastatic disease (CAT scans, X-rays, bone scans)",[1]; lower dosage,partial remission in many patients
same,"affinity for VDR relative to 1α,25-(OH)2D3",bovine thymus VDR,two-fold lower affinity; also recorded: two-fold less competitive
same,IC50,"bovine thymus VDR; radioreceptor assay, Incstar kit, read-out: half-maximal binding (converted)",~0.35 nM
same,incidence of hypercalcemia,[2],insignificant incidence of hypercalcemia
same,"lesion severity scores (erythema, scaling, thickness; 0 to 3)",[2]; four to six weeks,lower scores than the control lesions
